Each structure is given as a SMILES string. Values joined by “and” are separate entries in the source; they are usually repeats but may differ in a detail not shown here. Equal values may be shown once.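 Cells were grown in 96-well plates and exposed to each compound for 48 hours at five concentrations; endpoints were interpolated linearly between bracketing concentrations, or set to the highest concentration if not reached. Abbreviation: GI50, concentration required for 50% inhibition of growth. The concentration for full growth arrest is given as TGI.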

Eight molecules from PubChem BioAssay (NCI) can be followed below.

What all share (test): NCI tumour cell line growth inhibition, 48 h
For assay [1], the system named is CCRF-CEM leukemia.
Assay [2] concerns M14 melanoma.
The test system of assay [3] is UACC-257 melanoma.
The test system of assay [4] is SW-620 colon.
Assay [5] has as its system HOP-62 NSCLC.
Assay [6] concerns MOLT-4 leukemia.
For assay [7], the system named is UO-31 renal.
Assay [8] has as its system T-47D breast.
The subject of assay [9] is OVCAR-5 ovarian.
In assay [10] the test system is HOP-92 NSCLC.

As to `COc1ccc(C(=O)/C(Br)=C/C(=O)O)cc1`, the GI50 in assay [1] is 3.22 µM and 9.43 µM; in assay [2] it was 52.9 µM; in assay [3], 21.9 µM; in [4], 19.2 µM and 24.7 µM; in assay [5], 24.1 µM; in assay [6], 21 µM. The GI50 in assay [7] is 20.3 µM; in assay [8], 15.7 µM. For the same molecule, the TGI in assay [1] is 61 µM and 81.7 µM; in assay [2], 79.3 µM and 120 µM; in [3], 74.4 µM and 85.1 µM; in [4], 63.6 µM and 145 µM; in assay [5], 58.3 µM and 50.3 µM; in assay [6], 98.5 µM and 86.5 µM. In addition, the TGI in assay [7] is 77.7 µM and 103 µM; in assay [8] it was 149 µM and 260 µM; in assay [9] it was 131 µM and 129 µM; in assay [10] it was 93.7 µM and 93.6 µM.

`CNC(=O)c1cc(OC2CCC(NC(=O)Nc3ccc(Cl)c(C(F)(F)F)c3)CC2)ccn1` (stereo unspecified): the GI50 in [1] is 4.41 µM; in assay [2], 5.47 µM; in [3], 5.68 µM; in [4], 11.5 µM; in assay [5], 15 µM; in assay [6], 4 µM. Besides, the GI50 in [7] was 7.09 µM; in assay [8] it was 5.31 µM; in [9], 12.5 µM; in [10], 6.8 µM. The TGI in assay [1] is greater than 100 µM; in assay [2], 20.6 µM; in assay [3] it was 20.3 µM; in [4], 31.2 µM; in [5], 31.4 µM; in assay [6] it was 21.5 µM. Also, the TGI is 21.7 µM in assay [7], 39.4 µM in assay [8], 31.1 µM in assay [9] and 27.1 µM in assay [10].

Consider `CN1CC[C@@H](c2c(O)cc(O)c3c(=O)cc(-c4ccccc4Cl)oc23)[C@@H](O)C1`, for which the GI50 is 0.038 µM and 0.0412 µM in [1]; 0.0771 µM and 0.0278 µM in [2]; 0.125 µM and 0.137 µM in assay [3]; 0.0594 µM and 0.0653 µM in assay [4]; 0.117 µM and 0.0384 µM in assay [5]; 0.0429 µM and 0.0288 µM in assay [6]. Besides, the GI50 in [7] is 0.0713 µM and 0.0363 µM and 0.0238 µM; in assay [8] it was 0.0824 µM and 0.0669 µM and 0.0342 µM; in assay [9], 0.0801 µM and 0.146 µM; in [10] it was 0.104 µM. Further, the TGI in assay [2] was 0.225 µM and 0.226 µM and 0.104 µM; in [3] it was 0.366 µM and 0.619 µM and 0.282 µM; in [4] it was 23.2 µM; in assay [6], 0.662 µM and 0.521 µM; in assay [7] it was 0.876 µM and 0.164 µM and 1.18 µM; in assay [10] it was 0.517 µM and 1.87 µM.

`COc1cc([C@H]2c3cc4c(cc3O[C@@]3(O)COC(=O)[C@@H]23)OCO4)cc(OC)c1OC`: the TGI in assay [1], in assay [2], in assay [3], in assay [4], in assay [5] and in assay [6] was greater than 100 µM each time. Moreover, the TGI in assay [7], in assay [8], in assay [9] and in assay [10] was greater than 100 µM each time.

As for `CC(=O)Nc1ccc2c(c1)c(C1=C(c3cn(C)c4ccccc34)C(=O)NC1=O)cn2C`, the GI50 in [1] was 0.991 µM; in assay [2], 1.5 µM; in assay [3], greater than 21.6 µM; in assay [4], 1.02 µM; in assay [5] it was 1.98 µM; in assay [6] it was 2.4 µM. Further, the GI50 is 1.16 µM in assay [7], 1.66 µM in assay [8], greater than 25 µM in assay [9] and 0.807 µM in assay [10]. For the same molecule, the TGI in assay [1] is greater than 25 µM; in assay [2], greater than 25 µM; in assay [3] it was greater than 25 µM; in assay [4], greater than 25 µM; in [5] it was greater than 25 µM; in assay [6], 13.8 µM. Besides, the TGI in assay [7] was greater than 25 µM; in [8], greater than 25 µM; in assay [9], greater than 25 µM; in assay [10], 12 µM.

As for `C=C1CC2(OC1=O)C(=O)N(CCCCCCCN1C(=O)C3(CC(=C)C(=O)O3)c3ccccc31)c1ccccc12` (stereo unspecified), the GI50 in [1] was 0.896 µM; in assay [2], 1.45 µM; in assay [3] it was 2.14 µM; in assay [4], 0.938 µM; in [5], 6.8 µM; in [6], 0.267 µM. Further, the GI50 in assay [7] is 3.44 µM; in [8], 1.17 µM; in assay [9] it was 7.09 µM; in assay [10], 1.03 µM. Further, the TGI was found to be 6.42 µM in [1]; 5.6 µM in [2]; 8.76 µM in assay [3]; 2.21 µM in [4]; 15.4 µM in assay [5]; 5.53 µM in assay [6]. For the same molecule, the TGI in assay [7] was 9.95 µM; in [8], 5.02 µM; in [9], 14.2 µM; in [10], 3.64 µM.

As to `CN1CCN(CN2C(=O)C3C4C=CC(C3C2=O)C2C3C(=O)N(CN5CCN(C)CC5)C(=O)C3C42)CC1` (stereo unspecified), the TGI in assay [1] is 65.3 µM and 42 µM and 48.3 µM; in assay [2], 30.8 µM and 34.2 µM and 40.8 µM; in assay [3] it was 84.4 µM and 54.3 µM and > 100 µM; in assay [4] it was 43.2 µM and > 60.8 µM and 35.1 µM; in assay [5] it was greater than 100 µM; in assay [6] it was 60.6 µM and 51.3 µM and 55.9 µM. In addition, the TGI in assay [7] is 76.8 µM and > 67.8 µM and > 100 µM; in assay [8] it was greater than 100 µM; in assay [9], greater than 100 µM; in assay [10], 94.8 µM and > 100 µM. The GI50 in assay [3] is 35.7 µM and 25 µM and 62.2 µM; in assay [10] it was 35.7 µM and > 96.5 µM and > 100 µM.

As for `COc1cccc(C2CC(C)(N3CCCC3)Oc3cc4c(cc32)OCO4)c1O` (stereo unspecified), the TGI in assay [1] is greater than 83.3 µM; in [2], greater than 83.8 µM; in assay [3], greater than 100 µM; in assay [4], greater than 100 µM; in assay [5], 90.1 µM; in [6], greater than 73.4 µM. For the same molecule, the TGI in [7] is greater than 96.3 µM; in assay [8], greater than 100 µM; in assay [9] it was greater than 100 µM; in assay [10], greater than 100 µM.
